Reference: patent US8802713B2, “3-alkoxy-1-phenylpyrazole derivatives and pesticides” (Kumiai Chemical Industry Co., Ltd., priority 2007, dated 2014)
Like-named read-outs stand apart in the source and are kept apart here.

Tests used:
diamondback moth = assay: Insecticidal test on diamondback moth; type: in vivo; conditions: Plutella xylostella, 144 h
Description: A wettable powder prepared in accordance with Formulation Example 2 was diluted with water to a concentration of an active ingredient of 500 ppm. Cabbage leaves were dipped in this solution and dried in air and then put in a plastic cup having a capacity of 60 mL. 10 second-instar larvae of diamondback moth were released in the cup and the cup was lidded. Then, the cup was placed in a thermostatic chamber at 25° C. for 6 days, and dead moths were counted for calculation of the mortality by Equation 2. The test was carried out by one series system.

brown rice planthopper = assay: Insecticidal test on brown rice planthopper; type: in vivo; conditions: 144 h
Description: A wettable powder prepared in accordance with Formulation Example 2 was diluted with water to a concentration of an active ingredient of 500 ppm. Rice sprouts were dipped in this solution and put in a plastic cup having a capacity of 60 mL. Ten third-instar larvae of brown rice planthopper were released in the cup, the cup was lidded and placed in a thermostatic chamber at 25° C. for 6 days, and the number of dead larvae were counted for calculation of the mortality by Equation 2. The test was carried out by one series system.

two-spotted spider mites = assay: Miticidal test on two-spotted spider mites (seedling dip); type: in vivo, Tetranvchus urticae; conditions: Glycine max, 312 h; 500 ppm active ingredient, soybean seedlings with imago mites dipped, 25° C., 13 days; read-out: protective value
Description: A wettable powder prepared in accordance with Formulation Example 2 was diluted with water to a concentration of an active ingredient of 500 ppm. Soybean seedlings which had been inoculated with imago two-spotted spider mites were dipped in the solution and dried in air. The treated soybean seedlings were placed in a thermostatic chamber at 25° C. for 13 days, and the number of live mites were assessed for calculation of the protective value by Equation 1. The test was carried out by one series system.

cotton aphid = assay: Insecticidal test on cotton aphid (seedling dip); type: in vivo; conditions: Aphis gossypii, in Cucumis sativus, 72 h
Description: A wettable powder prepared in accordance with Formulation Example 2 was diluted with water to a concentration of an active ingredient of 500 ppm. Cucumber seedlings which had been inoculated with larvae of cotton aphid were dipped in this solution and dried in air. The treated cucumber seedlings were placed in a thermostatic chamber at 25° C. for 3 days, and the live insects were counted for calculation of the mortality by Equation 2. The test was carried out by one series system.

Cc1cc(F)c(-n2nc(OCC(F)(F)C(F)(F)F)c(F)c2N)cc1SCC(F)(F)F [1-41, 5-amino-1-{2-fluoro-4-methyl-5-(2,2,2-trifluoroethylthio)phenyl}-4-fluoro-3-(2,2,3,3,3-pentafluoropropoxy)pyrazole]
mortality at 500 ppm (diamondback moth; 500 ppm active ingredient, cabbage leaves dipped, second-instar larvae, 25° C., 6 days, read-out: mortality): ≥ 90%
mortality at 500 ppm (brown rice planthopper): ≥ 90%

Cc1cc(F)c(-n2nc(OCC(F)(F)C(F)(F)F)c(Cl)c2N)cc1SCC(F)(F)F [1-43, 5-amino-4-chloro-1-{2-fluoro-4-methyl-5-(2,2,2-trifluoroethylthio)phenyl}-3-(2,2,3,3,3-pentafluoropropoxy)pyrazole]
mortality at 500 ppm (diamondback moth; in Brassica oleracea): ≥ 90%
mortality at 500 ppm (brown rice planthopper): ≥ 90%
pest or weed control at 500 ppm (two-spotted spider mites): ≥ 90%

Cc1cc(F)c(-n2nc(OCC(F)(F)C(F)(F)F)c(Cl)c2Cl)cc1SCC(F)(F)F [1-111, 1-{2-fluoro-4-methyl-5-(2,2,2-trifluoroethylthio)phenyl}-4,5-dichloro-3-(2,2,3,3,3-pentafluoropropoxy)pyrazole]
mortality at 500 ppm (brown rice planthopper): ≥ 90%
pest or weed control at 500 ppm (two-spotted spider mites): ≥ 90%

Cc1cc(F)c(-n2nc(OCC(F)(F)C(F)(F)F)cc2C#N)cc1[S+]([O-])CC(F)(F)F (stereo not shown) [1-134, 5-cyano-1-{2-fluoro-4-methyl-5-(2,2,2-trifluoroethylsulfinyl)phenyl}-3-(2,2,3,3,3-pentafluoropropoxy)pyrazole]
mortality at 500 ppm (brown rice planthopper): ≥ 90%
pest or weed control at 500 ppm (two-spotted spider mites): ≥ 90%

Cc1cc(F)c(-n2nc(OCC(F)(F)C(F)(F)F)cc2C(=O)O)cc1SCC(F)(F)F [1-145, 1-{2-fluoro-4-methyl-5-(2,2,2-trifluoroethylthio)phenyl}-3-(2,2,3,3,3-pentafluoropropoxy)pyrazole-5-carboxylic acid]
mortality at 500 ppm (brown rice planthopper): ≥ 90%

Cc1cc(F)c(-n2nc(OCC(F)(F)C(F)(F)F)cc2C=O)cc1SCC(F)(F)F [1-199, 1-{2-fluoro-4-methyl-5-(2,2,2-trifluoroethylthio)phenyl}-5-formyl-3-(2,2,3,3,3-pentafluoropropoxy)pyrazole]
mortality at 500 ppm (diamondback moth; in Brassica oleracea): ≥ 90%
pest or weed control at 500 ppm (two-spotted spider mites): ≥ 90%

Cc1cc(F)c(-n2nc(OCC(F)(F)C(F)(F)F)cc2CO)cc1SCC(F)(F)F [1-201, 1-{2-fluoro-4-methyl-5-(2,2,2-trifluoroethylthio)phenyl}-5-hydroxymethyl-3-(2,2,3,3,3-pentafluoropropoxy)pyrazole]
mortality at 500 ppm (brown rice planthopper): ≥ 90%
pest or weed control at 500 ppm (two-spotted spider mites): ≥ 90%

Cc1cc(F)c(-n2nc(OCCC(F)(F)F)cc2C)cc1SCC(F)(F)F [1-249, 1-{2-fluoro-4-methyl-5-(2,2,2-trifluoroethylthio)phenyl}-5-methyl-3-(3,3,3-trifluoropropoxy)pyrazole]
mortality at 500 ppm (brown rice planthopper): ≥ 90%
pest or weed control at 500 ppm (two-spotted spider mites): ≥ 90%

Cc1cc(F)c(-n2nc(OCCC(F)(F)F)cc2C)cc1[S+]([O-])CC(F)(F)F (stereo not shown) [1-250, 1-{2-fluoro-4-methyl-5-(2,2,2-trifluoroethylsulfinyl)phenyl}-5-methyl-3-(3,3,3-trifluoropropoxy)pyrazole]
mortality at 500 ppm (cotton aphid): ≥ 90%
mortality at 500 ppm (brown rice planthopper): ≥ 90%
pest or weed control at 500 ppm (two-spotted spider mites): ≥ 90%

Cc1cc(F)c(-n2nc(OC(F)(F)C(F)C(F)(F)F)cc2Cl)cc1SCC(F)(F)F (stereo not shown) [1-253, 5-chloro-1-{2-fluoro-4-methyl-5-(2,2,2-trifluoroethylthio)phenyl}-3-(1,1,2,3,3,3-hexafluoropropoxy)pyrazole]
mortality at 500 ppm (cotton aphid): ≥ 90%
mortality at 500 ppm (brown rice planthopper): ≥ 90%
pest or weed control at 500 ppm (two-spotted spider mites): ≥ 90%

Cc1cc(F)c(-n2nc(OC(F)(F)C(F)C(F)(F)F)cc2Cl)cc1[S+]([O-])CC(F)(F)F (stereo not shown) [1-254, 5-chloro 1-{2-fluoro-4-methyl-5-(2,2,2-trifluoroethylsulfinyl)phenyl}-3-(1,1,2,3,3,3-hexafluoropropoxy)pyrazole]
mortality at 500 ppm (cotton aphid): ≥ 90%
mortality at 500 ppm (brown rice planthopper): ≥ 90%
pest or weed control at 500 ppm (two-spotted spider mites): ≥ 90%

CNc1c(Cl)c(OC(F)(F)C(F)C(F)(F)F)nn1-c1cc(SCC(F)(F)F)c(C)cc1F (stereo not shown) [1-261, 4-chloro-1-{2-fluoro-4-methyl-5-(2,2,2-trifluoroethylthio)phenyl}-3-(1,1,2,3,3,3-hexafluoropropoxy)-5-methylaminopyrazole]
mortality at 500 ppm (diamondback moth; in Brassica oleracea): ≥ 90%
mortality at 500 ppm (brown rice planthopper): ≥ 90%
pest or weed control at 500 ppm (two-spotted spider mites): ≥ 90%

CNc1c(Cl)c(OC(F)(F)C(F)C(F)(F)F)nn1-c1cc([S+]([O-])CC(F)(F)F)c(C)cc1F (stereo not shown) [1-262, 4-chloro-1-{2-fluoro-4-methyl-5-(2,2,2-trifluoroethylsulfinyl)phenyl}-3-(1,1,2,3,3,3-hexafluoropropoxy)-5-methylaminopyrazole]
mortality at 500 ppm (diamondback moth; in Brassica oleracea): ≥ 90%
mortality at 500 ppm (brown rice planthopper): ≥ 90%
pest or weed control at 500 ppm (two-spotted spider mites): ≥ 90%

Cc1cc(F)c(-n2nc(OC(F)(F)C(F)C(F)(F)F)c(Cl)c2N)cc1SCC(F)(F)F (stereo not shown) [1-263, 5-amino-4-chloro-1-{2-fluoro-4-methyl-5-(2,2,2-trifluoroethylthio)phenyl}-3-(1,1,2,3,3,3-hexafluoropropoxy)pyrazole]
mortality at 500 ppm (diamondback moth; in Brassica oleracea): ≥ 90%
mortality at 500 ppm (brown rice planthopper): ≥ 90%
pest or weed control at 500 ppm (two-spotted spider mites): ≥ 90%

Cc1cc(F)c(-n2nc(OC(F)(F)C(F)C(F)(F)F)c(Cl)c2N)cc1[S+]([O-])CC(F)(F)F (stereo not shown) [1-264, 5-amino-4-chloro 1-{2-fluoro-4-methyl-5-(2,2,2-trifluoroethylsulfinyl)phenyl}-3-(1,1,2,3,3,3-hexafluoropropoxy)pyrazole]
mortality at 500 ppm (diamondback moth; in Brassica oleracea): ≥ 90%
mortality at 500 ppm (brown rice planthopper): ≥ 90%
pest or weed control at 500 ppm (two-spotted spider mites): ≥ 90%

Cc1cc(F)c(-n2cc(Cl)c(OC(F)(F)C(F)OC(F)(F)F)n2)cc1SCC(F)(F)F (stereo not shown) [1-289, 4-chloro-1-{2-fluoro-4-methyl-5-(2,2,2-trifluoroethylthio)phenyl}-3-{1,1,2-trifluoro-2-(trifluoromethoxy)ethoxy}pyrazole]
mortality at 500 ppm (brown rice planthopper): ≥ 90%
pest or weed control at 500 ppm (two-spotted spider mites): ≥ 90%

Cc1cc(F)c(-n2cc(Cl)c(OC(F)(F)C(F)OC(F)(F)F)n2)cc1[S+]([O-])CC(F)(F)F (stereo not shown) [1-290, 4-chloro-1-{2-fluoro-4-methyl-5-(2,2,2-trifluoroethylsulfinyl)phenyl}-3-{1,1,2-trifluoro-2-(trifluoromethoxy)ethoxy}pyrazole]
mortality at 500 ppm (brown rice planthopper): ≥ 90%
pest or weed control at 500 ppm (two-spotted spider mites): ≥ 90%

Cc1cc(F)c(-n2nc(OC(F)(F)C(F)OC(F)(F)F)c(Cl)c2Cl)cc1SCC(F)(F)F (stereo not shown) [1-291, 4,5-dichloro-1-{2-fluoro-4-methyl-5-(2,2,2-trifluoroethylthio)phenyl}-3-{1,1,2-trifluoro-2-(trifluoromethoxy)ethoxy}pyrazole]
mortality at 500 ppm (diamondback moth; in Brassica oleracea): ≥ 90%
mortality at 500 ppm (brown rice planthopper): ≥ 90%
pest or weed control at 500 ppm (two-spotted spider mites): ≥ 90%

Cc1cc(F)c(-n2nc(OC(F)(F)C(F)OC(F)(F)F)c(Cl)c2Cl)cc1[S+]([O-])CC(F)(F)F (stereo not shown) [1-292, 4,5-dichloro-1-{2-fluoro-4-methyl-5-(2,2,2-trifluoroethylsulfinyl)phenyl}-3-{1,1,2-trifluoro-2-(trifluoromethoxy)ethoxy}pyrazole]
mortality at 500 ppm (diamondback moth; in Brassica oleracea): ≥ 90%
mortality at 500 ppm (brown rice planthopper): ≥ 90%
pest or weed control at 500 ppm (two-spotted spider mites): ≥ 90%

Cc1cc(F)c(-n2nc(OC(F)(F)C(F)OC(F)(F)F)cc2C#N)cc1[S+]([O-])CC(F)(F)F (stereo not shown) [1-669, 5-cyano-1-{2-fluoro-4-methyl-5-(2,2,2-trifluoroethylsulfinyl)phenyl}-3-{1,1,2-trifluoro-2-(trifluoromethoxy)ethoxy}pyrazole]
mortality at 500 ppm (brown rice planthopper): ≥ 90%
pest or weed control at 500 ppm (two-spotted spider mites): ≥ 90%

Cc1cc(F)c(-n2nc(OC(F)(F)C(F)OC(F)(F)F)cc2C(F)F)cc1[S+]([O-])CC(F)(F)F (stereo not shown) [1-1532, 5-difluoromethyl-1-{2-fluoro-4-methyl-5-(2,2,2-trifluoroethylsulfinyl)phenyl}-3-{1,1,2-trifluoro-2-(trifluoromethoxy)ethoxy}pyrazole]
mortality at 500 ppm (brown rice planthopper): ≥ 90%
pest or weed control at 500 ppm (two-spotted spider mites): ≥ 90%

Cc1cc(F)c(-n2ccc(Oc3ccc(C(F)(F)F)cc3)n2)cc1[S+]([O-])CC(F)(F)F (stereo not shown) [1-1586, 1-{2-fluoro-4-methyl-5-(2,2,2-trifluoroethylsulfinyl)phenyl}-3-{4-(trifluoromethyl)phenoxy}pyrazole]
mortality at 500 ppm (brown rice planthopper): ≥ 90%
pest or weed control at 500 ppm (two-spotted spider mites): ≥ 90%

Cc1cc(F)c(-n2cc(C#N)c(OC(F)(F)C(F)OC(F)(F)F)n2)cc1[S+]([O-])CC(F)(F)F (stereo not shown) [1-1588, 4-cyano-1-{2-fluoro-4-methyl-5-(2,2,2-trifluoroethylsulfinyl)phenyl}-3-{1,1,2-trifluoro-2-(trifluoromethoxy)ethoxy}pyrazole]
pest or weed control at 500 ppm (two-spotted spider mites): ≥ 90%

Cc1cc(F)c(-n2ccc(C(F)(F)F)n2)cc1SCC(F)(F)F [V-613, reference compound]
mortality at 500 ppm (cotton aphid): 0%
